Key:
MIA PaCa-2 cells [1] = assay: In-vitro anti-proliferative activity in combination with gemcitabine on MIA PaCa-2 cells; type: cell-based; settings: with 20 nM gemcitabine, 72 h after dosing, intracellular ATP content
Description: (§1) MIA PaCa-2 cells were seeded on a 384-well plate at 3000 cells/well, and 20 nM gemcitabine was added. After overnight adherence culture, DMSO or the compounds serially diluted 1:5 from 100 nM were added. The viability was assessed 72 h after dosing by measuring the intracellular ATP content. The inhibition percentage of viable cells by the compounds was calculated by comparing with the DMSO group, and the IC50 value was calculated.

MIA PaCa-2 cells [2] = assay: In-vitro anti-proliferative activity on MIA PaCa-2 cells; type: cell-based; settings: Homo sapiens, 72 h after dosing, intracellular ATP content
Description: as §1, with “cells/well.” for “cells/well, and 20 nM gemcitabine was added.”, “5 μM” for “100 nM”

[3] = molecular target: recombinant protein Wee-1 (Homo sapiens, UniProt P30291); assay: Inhibition of enzymatic activity of recombinant protein Wee-1 (HTRF); type: biochemical
Chain of recombinant protein Wee-1 (P30291 whole entry): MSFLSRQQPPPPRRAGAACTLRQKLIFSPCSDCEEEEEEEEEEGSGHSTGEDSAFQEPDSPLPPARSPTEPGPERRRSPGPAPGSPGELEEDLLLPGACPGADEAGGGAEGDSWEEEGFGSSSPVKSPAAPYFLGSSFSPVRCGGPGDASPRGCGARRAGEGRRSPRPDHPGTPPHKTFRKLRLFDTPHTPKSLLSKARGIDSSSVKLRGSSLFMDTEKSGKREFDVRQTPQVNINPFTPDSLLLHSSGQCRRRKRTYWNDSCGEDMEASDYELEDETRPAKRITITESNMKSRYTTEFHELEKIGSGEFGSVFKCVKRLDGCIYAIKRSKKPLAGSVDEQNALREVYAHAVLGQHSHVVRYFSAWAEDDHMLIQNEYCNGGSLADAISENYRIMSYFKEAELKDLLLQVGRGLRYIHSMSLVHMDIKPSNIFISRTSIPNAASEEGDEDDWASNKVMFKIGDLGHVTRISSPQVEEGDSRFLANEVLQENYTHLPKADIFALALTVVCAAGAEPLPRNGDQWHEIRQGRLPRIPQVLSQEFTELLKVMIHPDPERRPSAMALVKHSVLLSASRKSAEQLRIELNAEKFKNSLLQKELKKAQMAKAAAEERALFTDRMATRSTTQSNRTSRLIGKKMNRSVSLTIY
Description: The inhibitory effect of the compounds on the enzyme activity of recombinant protein Wee-1 was determined by HTRF. The procedures are as follows:
After DMSO or serially diluted compounds (up to 200 nM, 1:5 serially diluted) and recombinant proteins were co-incubated in a kinase buffer at 37° C. for 30 min Fluorescein-PolyGAT and ATP were added, and then the reaction was started by the addition of a substrate. After incubation at room temperature for 90 min, an antibody and a detection solution were added, and after further incubation at room temperature for 60 min, fluorescence values were detected (excitation wavelength: 340 nm, emission wavelengths: 495 and 520 nm). The 520 nm/495 nm fluorescence intensity ratio value was calculated, and compared with that of the DMSO group, and then the inhibition percentages and IC50 values of the compounds were calculated.

[4] = system: HT29 subcutaneous xenograft tumor; assay: Mouse HT29 subcutaneous xenograft tumor model; type: in vivo; settings: gemcitabine 15 mg/kg intraperitoneally once a week
Description: HT29 is a colon cancer cell. Each nude mouse was grafted subcutaneously with 5×10^6 HT29 cells. When the tumor grew to 100-200 mm^3, the compound was administered orally once a day alone or in combination with 15 mg/kg of gemcitabine injected intraperitoneally once a week, and the tumor volume was measured twice a week and at the end of treatment. Tumor growth inhibition of the compound was calculated according to the following equation: tumor growth inhibition (TGI)=1−(tumor volume on day 18 in treatment group−tumor volume on day 1 in treatment group)/(tumor volume on day 18 in vehicle control group−tumor volume on day 1 in treatment group).

Cc1ccc(Nc2nc(Nc3cc4c5c(c3)CN(C)CC5CCC4)ncc2C#N)nc1N=S(C)(C)=O (stereo not shown) [Compound 295]
IC50 (MIA PaCa-2 cells [1]): 1.5 nM | IC50 (MIA PaCa-2 cells [2]): 72 nM | IC50 [3]: ≤ 10 nM

CN1Cc2cc(Nc3ncc(C#N)c(Nc4cccc(N=S(C)(C)=O)n4)n3)cc3c2C(CCO3)C1 (stereo not shown) [Compound 64]
IC50 (MIA PaCa-2 cells [1]): 3.5 nM | IC50 (MIA PaCa-2 cells [2]): 400 nM | IC50 [3]: ≤ 10 nM

CN1Cc2cc(Nc3ncc(C#N)c(Nc4ccc(Cl)c(N=S(C)(C)=O)n4)n3)cc3c2C(CCC3)C1 (stereo not shown) [Compound 296]
IC50 (MIA PaCa-2 cells [1]): 3.1 nM | IC50 (MIA PaCa-2 cells [2]): 161 nM | IC50 [3]: ≤ 10 nM

COc1ccc(Nc2nc(Nc3cc4c5c(c3)CN(C)CC5CCC4)ncc2C#N)nc1N=S(C)(C)=O (stereo not shown) [Compound 121]
IC50 (MIA PaCa-2 cells [1]): 1.4 nM | IC50 (MIA PaCa-2 cells [2]): 89 nM | IC50 [3]: ≤ 10 nM

CN1Cc2cc(Nc3ncc(C#N)c(Nc4cccc(P(C)(C)=O)n4)n3)cc3c2C(CCC3)C1 (stereo not shown) [Compound 137]
IC50 (MIA PaCa-2 cells [1]): 26 nM | IC50 (MIA PaCa-2 cells [2]): > 5000 nM | IC50 [3]: ≤ 10 nM

CN1Cc2cc(Nc3ncc(C#N)c(Nc4cccc(N=S(C)(C)=O)n4)n3)cc3c2C1CCC3 (stereo not shown) [Compound 87]
IC50 (MIA PaCa-2 cells [1]): 1.6 nM | IC50 (MIA PaCa-2 cells [2]): 184 nM | IC50 [3]: ≤ 10 nM

CN1Cc2cc(Nc3ncc(C#N)c(Nc4cncc(N=S(C)(C)=O)n4)n3)cc3c2C(CCC3)C1 (stereo not shown) [Compound 105]
IC50 (MIA PaCa-2 cells [1]): 2.1 nM | IC50 (MIA PaCa-2 cells [2]): 441 nM | IC50 [3]: ≤ 10 nM

CN1Cc2cc(Nc3ncc(C#N)c(Nc4cccc(N=S(C)(C)=O)n4)n3)cc3c2[C@](C)(CCC3)C1 [Compound 5]
IC50 (MIA PaCa-2 cells [1]): 2.1 nM | IC50 (MIA PaCa-2 cells [2]): 1180 nM | IC50 [3]: ≤ 10 nM

CN1Cc2cc(Nc3ncc(C#N)c(Nc4cccc(N=S(C)(C)=O)n4)n3)cc3c2C(CC3)C1 (stereo not shown) [Compound 50]
IC50 (MIA PaCa-2 cells [1]): > 100 nM | IC50 (MIA PaCa-2 cells [2]): 148 nM | IC50 [3]: 10 to 50 nM

CN1Cc2cc(Nc3ncc(C#N)c(Nc4cccc(N=S(C)(C)=O)n4)n3)cc3c2[C@@](C)(CCC3)C1 [Compound 6]
IC50 (MIA PaCa-2 cells [1]): 5.3 nM | IC50 (MIA PaCa-2 cells [2]): 910 nM | IC50 [3]: ≤ 10 nM

CN1Cc2cc(Nc3ncc(C#N)c(Nc4cc5ccccc5c(N=S(C)(C)=O)n4)n3)cc3c2C(CCC3)C1 (stereo not shown) [Compound 108]
IC50 (MIA PaCa-2 cells [1]): 11 nM | IC50 (MIA PaCa-2 cells [2]): 225 nM | IC50 [3]: ≤ 10 nM

CN1Cc2cc(Nc3ncc(C#N)c(Nc4cccc(N=S(C)(C)=O)n4)n3)cc3c2C(CCC3)C1 (stereo not shown) [Compound 1]
IC50 (MIA PaCa-2 cells [1]): 1.9 nM | IC50 (MIA PaCa-2 cells [2]): 236 nM | IC50 [3]: ≤ 10 nM

CN1Cc2cc(Nc3ncc(C#N)c(Nc4cccc(N=S(C)(C)=O)n4)n3)cc3c2C(C)(CCC3)C1 (stereo not shown) [Compound 4]
IC50 (MIA PaCa-2 cells [1]): 2.4 nM | IC50 (MIA PaCa-2 cells [2]): 968 nM | IC50 [3]: ≤ 10 nM

CN1Cc2cc(Nc3ncc(C#N)c(Nc4cccc(N=S(C)(C)=O)n4)n3)cc3c2C(CCC3O)C1 (stereo not shown) [Compound 289]
IC50 [3]: ≤ 10 nM

CN1Cc2cc(Nc3ncc(C#N)c(Nc4cccc(N=S(C)(C)=O)n4)n3)cc3c2C(CCC3N)C1 (stereo not shown) [Compound 290]
IC50 [3]: ≤ 10 nM

C=Cc1cc(N=S(C)(C)=O)nc(Nc2nc(Nc3cc4c5c(c3)CC(N(C)C)CCC5CCC4)ncc2C#N)c1 (stereo not shown) [Compound 124]
IC50 [3]: ≤ 10 nM

CN1Cc2cc(Nc3ncc(C#N)c(Nc4cccc(N=S(C)(C)=O)n4)n3)cc3c2[C@@H](CCC3)C1 (single isomer, unassigned) [Compound 3]
IC50 (MIA PaCa-2 cells [1]): 6.4 nM | IC50 (MIA PaCa-2 cells [2]): 1090 nM | IC50 [3]: ≤ 10 nM

CS(C)(=O)=Nc1cccc(Nc2nc(Nc3cc4c5c(c3)CN(C3CC3)C[C@H]5CCC4)ncc2C#N)n1 [Compound 14]
IC50 [3]: ≤ 10 nM

CN1Cc2cc(Nc3ncc(C#N)c(Nc4cccc(N=S(C)(C)=O)n4)n3)cc3c2C(CCCS3)C1 (stereo not shown) [Compound 75]
IC50 [3]: ≤ 10 nM

COc1c(Nc2ncc(C#N)c(Nc3cccc(N=S(C)(C)=O)n3)n2)cc2c3c1CCCC3CN(C)C2 (stereo not shown) [Compound 49]
IC50 (MIA PaCa-2 cells [1]): > 100 nM | IC50 (MIA PaCa-2 cells [2]): > 5000 nM | IC50 [3]: 10 to 50 nM

CS(C)(=O)=Nc1cccc(Nc2nc(Nc3cc4c5c(c3)CN(C3CC3)CC5CCC4)ncc2C#N)n1 (stereo not shown) [Compound 13]
IC50 [3]: ≤ 10 nM

CN1Cc2cc(Nc3ncc(C#N)c(Nc4cccc(N=S(C)(C)=O)n4)n3)cc3c2C(CCCCO3)C1 (stereo not shown) [Compound 82]
IC50 [3]: ≤ 10 nM

CC(=O)N1Cc2cc(Nc3ncc(C#N)c(Nc4cccc(N=S(C)(C)=O)n4)n3)cc3c2C(CN(C)C3)C1 (stereo not shown) [Compound 128]
IC50 [3]: ≤ 10 nM

CN1Cc2nc(Nc3ncc(C#N)c(Nc4cccc(N=S(C)(C)=O)n4)n3)cc3c2C(CCC3)C1 (stereo not shown) [Compound 40]
IC50 [3]: ≤ 10 nM

CN1Cc2cc(Nc3ncc(C#N)c(Nc4cccc(N=S(C)(C)=O)n4)n3)cc3c2C(CCN3)C1 (stereo not shown) [Compound 132]
IC50 [3]: ≤ 10 nM

CN1Cc2cc(Nc3ncc(C#N)c(Nc4nccc(N=S(C)(C)=O)n4)n3)cc3c2C(CCC3)C1 (stereo not shown) [Compound 107]
IC50 [3]: ≤ 10 nM

CN1Cc2cc(Nc3ncc(C#N)c(-n4ccc5c(N=S(C)(C)=O)cccc54)n3)cc3c2C(CCC3)C1 (stereo not shown) [Compound 113]
IC50 [3]: ≤ 10 nM

CN1Cc2cc(Nc3ncc(C#N)c(Nc4cccc(N=S(C)(C)=O)n4)n3)cc3c2C(CC2CC32)C1 (stereo not shown) [Compound 37]
IC50 [3]: ≤ 10 nM

CN1CC2CCCc3cc(Nc4ncc(C#N)c(Nc5cccc(N=S(C)(C)=O)n5)n4)cc(c32)C1(C)C (stereo not shown) [Compound 20]
IC50 [3]: ≤ 10 nM

CN1Cc2cc(Nc3ncc(C(F)(F)F)c(Nc4cccc(N=S(C)(C)=O)n4)n3)cc3c2C(CCC3)C1 (stereo not shown) [Compound 94]
IC50 [3]: ≤ 10 nM

CN1Cc2cc(Nc3ncc(C#N)c(Nc4cccc(N=S(C)(C)=O)n4)n3)cc3c2C(C1)N(C)CC3 (stereo not shown) [Compound 129]
IC50 [3]: ≤ 10 nM

CN1Cc2cc(Nc3ncc(C#N)c(Nc4nc(N=S(C)(C)=O)ccc4F)n3)cc3c2C(CCC3)C1 (stereo not shown) [Compound 112]
IC50 (MIA PaCa-2 cells [1]): 29 nM | IC50 (MIA PaCa-2 cells [2]): > 5000 nM | IC50 [3]: ≤ 10 nM

CN1Cc2cc(Nc3ncc(C#N)c(Nc4cccc(N=S(C)(C)=O)n4)n3)cc3c2C(CCN3C)C1 (stereo not shown) [Compound 131]
IC50 [3]: ≤ 10 nM

CC(C)N1Cc2cc(Nc3ncc(C#N)c(Nc4cccc(N=S(C)(C)=O)n4)n3)cc3c2[C@H](CCC3)C1 [Compound 11]
IC50 [3]: ≤ 10 nM

CN1Cc2cc(Nc3ncc(C#N)c(Nc4cccc(N=S(C)(C)=O)n4)n3)cc3c2C2(CCC3)CC12 (stereo not shown) [Compound 125]
IC50 [3]: ≤ 10 nM

CN1Cc2cc(Nc3ncc(C#N)c(Nc4ccnc(N=S(C)(C)=O)n4)n3)cc3c2C(CCC3)C1 (stereo not shown) [Compound 106]
IC50 [3]: ≤ 10 nM

COc1ccc(Nc2nc(Nc3cc4c5c(c3)CN(C)CCC5CCC4)ncc2C#N)nc1N=S(C)(C)=O (stereo not shown) [Compound 123]
IC50 [3]: ≤ 10 nM

CCN1Cc2cc(Nc3ncc(C#N)c(Nc4cccc(N=S(C)(C)=O)n4)n3)cc3c2[C@@H](CCC3)C1 [Compound 9]
IC50 [3]: ≤ 10 nM

Nc1ccn([C@@H]2O[C@H](CO)[C@@H](O)C2(F)F)c(=O)n1 [Gemcitabine, gemcitabine, reference compound]
TGI ([4]; day 18, nude mouse HT29 xenograft): 57% | Tumor volume on day 1 of treatment (mm^3) ([4]; nude mouse HT29 xenograft): 112 mm^3 | Tumor volume on day 18 of treatment (mm^3) ([4]; nude mouse HT29 xenograft): 539 mm^3

CN1C[C@@H]2CCCc3cc(Nc4ncc(C#N)c(Nc5cccc(N=S(C)(C)=O)n5)n4)cc(c32)C1(C)C [Compound 22]
IC50 [3]: ≤ 10 nM

CN1Cc2cc(Nc3ncc(C#N)c(Nc4cccc(N=S(C)(C)=O)c4)n3)cc3c2C(CCC3)C1 (stereo not shown) [Compound 101]
IC50 [3]: ≤ 10 nM

CN1Cc2cc(Nc3ncc(C#N)c(Nc4cccc(N=S(C)(C)=O)n4)n3)cc3c2C(C1)CN(C)C3 [Compound 126]
IC50 [3]: ≤ 10 nM

CN1Cc2cc(Nc3ncc(C#N)c(Nc4cccc(N=S(C)(C)=O)n4)n3)c(F)c3c2C(CCC3)C1 (stereo not shown) [Compound 48]
IC50 [3]: ≤ 10 nM

CN1Cc2cc(Nc3ncc(C#N)c(Nc4cccc(N=S(C)(C)=O)n4)n3)cc3c2[C@@H](CCC3)C1(C)C [Compound 25]
IC50 [3]: ≤ 10 nM

CN1Cc2cc(Nc3ncc(C#N)c(Nc4cccc(N=S(C)(C)=O)n4)n3)cc3c2[C@](C)(CCCC3)C1 [Compound 60]
IC50 [3]: ≤ 10 nM

CN1Cc2cc(Nc3ncc(C#N)c(Nc4ccc(F)c(N=S(C)(C)=O)n4)n3)cc3c2C(CCC3)C1 (stereo not shown) [Compound 110]
IC50 (MIA PaCa-2 cells [1]): 1.1 nM | IC50 (MIA PaCa-2 cells [2]): 186 nM

CN1Cc2cc(Nc3ncc(C#N)c(Nc4cccc(N=S(C)(C)=O)n4)n3)cc3c2C(CSC3)C1 (stereo not shown) [Compound 67]
IC50 [3]: ≤ 10 nM
